The record followed here is US9050341B2, “Methods of treating drug resistant and other tumors by administering 6,7-dialkoxy quinazoline derivatives” (NATCO PHARMA LIMITED, priority 2009, dated 2015).

What all share (experiment): KinomeScan kinase profiling
Holding throughout (type): binding

Assay [1] concerns the target T1, AKT3 (Homo sapiens, UniProt Q9Y243).
T1 construct: host or cells: E. coli host derived from BL21 (T7 phage lysate)
A digest of the protocol:
(§1)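 Kinases were expressed as T7 phage fusions in a BL21-derived E. coli host and the cleared lysates were used. Ligand beads were blocked with biotin and buffer (1% BSA, 0.05% Tween 20, 1 mM DTT). Compounds came from 40× DMSO stocks, and phage in the eluates was titred by qPCR.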

Assay [2] concerns the target T2, ARK5 (Homo sapiens, UniProt O60285).
T2 construct: purchased Ambit Biosciences Corp (KinomeScan); host or cells: E. coli host derived from the BL21 strain, T7 phage
An outline of the steps:
as §1

Assay [3] concerns the target T3, BRSK1 (Homo sapiens, UniProt Q8TDC3).
T3 construct: purchased Ambit Biosciences Corp (KinomeScan); host or cells: E. coli host derived from the BL21 strain, T7 phage
A digest of the protocol: as §1

Assay [4] concerns the target T4, CAMK4 (Homo sapiens, UniProt Q16566).
T4 construct: host or cells: T7 phage in E. coli (BL21-derived)
A digest of the protocol: as §1

For assay [5], the target named is T5, DAPK2 (Homo sapiens, UniProt Q9UIK4).
T5 construct: purchased Ambit Biosciences Corp (KinomeScan); host or cells: T7 phage in E. coli host derived from BL21
T5 sequence (Q9UIK4 whole entry): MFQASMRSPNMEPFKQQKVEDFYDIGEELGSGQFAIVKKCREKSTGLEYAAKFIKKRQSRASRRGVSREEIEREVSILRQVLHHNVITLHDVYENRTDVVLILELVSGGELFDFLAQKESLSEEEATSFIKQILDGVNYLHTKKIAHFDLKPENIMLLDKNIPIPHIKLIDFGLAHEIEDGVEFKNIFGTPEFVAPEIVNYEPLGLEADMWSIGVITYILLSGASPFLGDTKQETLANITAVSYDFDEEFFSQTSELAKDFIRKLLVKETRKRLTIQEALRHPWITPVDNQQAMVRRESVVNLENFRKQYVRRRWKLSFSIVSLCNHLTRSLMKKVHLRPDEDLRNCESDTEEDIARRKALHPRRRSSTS
A digest of the protocol: as §1

Assay [6] has as its target T6, DMPK (Homo sapiens, UniProt Q09013).
T6 construct: purchased Ambit Biosciences Corp (KinomeScan); host or cells: T7 phage in E. coli host derived from BL21
An outline of the steps:
as §1

Assay [7] has as its target T7, EGFR (L747-E749del, A750P) (Homo sapiens, UniProt P00533, A750P/DEL747-749).
T7 construct: purchased Ambit Biosciences Corp (KinomeScan); host or cells: T7 phage in E. coli host derived from BL21
An outline of the steps: as §1

The target of assay [8] is T8, EGFR (L747-S752del, P753S) (Homo sapiens, UniProt P00533, DEL747-752/P753S).
T8 construct: purchased Ambit Biosciences Corp (KinomeScan); host or cells: T7 phage in E. coli host derived from BL21
An outline of the steps: as §1

The target in assay [9] is T9, ERK3 (Homo sapiens, UniProt Q16659).
T9 construct: host or cells: E. coli host derived from BL21, T7 phage lysate
T9 sequence (Q16659 whole entry): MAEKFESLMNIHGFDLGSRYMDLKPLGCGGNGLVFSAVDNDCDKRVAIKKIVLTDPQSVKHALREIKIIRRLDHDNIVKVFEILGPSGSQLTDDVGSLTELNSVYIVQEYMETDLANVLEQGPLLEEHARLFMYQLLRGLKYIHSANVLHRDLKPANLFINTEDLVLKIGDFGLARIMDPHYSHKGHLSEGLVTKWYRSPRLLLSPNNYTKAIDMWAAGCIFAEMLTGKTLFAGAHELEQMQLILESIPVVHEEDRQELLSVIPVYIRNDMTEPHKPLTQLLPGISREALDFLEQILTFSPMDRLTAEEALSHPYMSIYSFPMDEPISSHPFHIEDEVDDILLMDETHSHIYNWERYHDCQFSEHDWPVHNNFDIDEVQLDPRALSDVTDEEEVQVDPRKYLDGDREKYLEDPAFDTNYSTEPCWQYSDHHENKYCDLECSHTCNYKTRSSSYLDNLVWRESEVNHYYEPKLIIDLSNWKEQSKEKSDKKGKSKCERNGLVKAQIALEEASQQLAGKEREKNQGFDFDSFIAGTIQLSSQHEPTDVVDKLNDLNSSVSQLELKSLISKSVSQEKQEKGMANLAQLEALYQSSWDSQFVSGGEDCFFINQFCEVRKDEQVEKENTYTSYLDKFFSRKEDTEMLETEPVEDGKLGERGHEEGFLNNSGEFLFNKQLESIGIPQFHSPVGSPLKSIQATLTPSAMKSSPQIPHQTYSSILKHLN
An outline of the steps: as §1

The target in assay [10] is T10, GAK (Homo sapiens, UniProt O14976).
T10 construct: host or cells: E. coli host derived from BL21, infected with T7 phage
An outline of the steps:
as §1

The target of assay [11] is T11, IKK-epsilon (Homo sapiens, UniProt Q14164).
T11 construct: host or cells: T7 phage in E. coli host derived from BL21
A digest of the protocol: as §1

Assay [12] has as its target T12, JNK2 (Homo sapiens, UniProt P45984).
T12 construct: host or cells: T7 phage in E. coli host derived from BL21
An outline of the steps: as §1

Assay [13] concerns the target T13, LIMK2 (Homo sapiens, UniProt P53671).
T13 construct: host or cells: T7 phage in E. coli host derived from BL21
An outline of the steps: as §1

The target in assay [14] is T14, MLK2 (Homo sapiens, UniProt Q02779).
T14 construct: host or cells: T7 phage in E. coli host derived from BL21
An outline of the steps:
as §1

In assay [15] the target is T15, MST2 (Homo sapiens, UniProt Q13188).
T15 construct: host or cells: T7 phage in E. coli host derived from BL21
T15 sequence (Q13188 whole entry): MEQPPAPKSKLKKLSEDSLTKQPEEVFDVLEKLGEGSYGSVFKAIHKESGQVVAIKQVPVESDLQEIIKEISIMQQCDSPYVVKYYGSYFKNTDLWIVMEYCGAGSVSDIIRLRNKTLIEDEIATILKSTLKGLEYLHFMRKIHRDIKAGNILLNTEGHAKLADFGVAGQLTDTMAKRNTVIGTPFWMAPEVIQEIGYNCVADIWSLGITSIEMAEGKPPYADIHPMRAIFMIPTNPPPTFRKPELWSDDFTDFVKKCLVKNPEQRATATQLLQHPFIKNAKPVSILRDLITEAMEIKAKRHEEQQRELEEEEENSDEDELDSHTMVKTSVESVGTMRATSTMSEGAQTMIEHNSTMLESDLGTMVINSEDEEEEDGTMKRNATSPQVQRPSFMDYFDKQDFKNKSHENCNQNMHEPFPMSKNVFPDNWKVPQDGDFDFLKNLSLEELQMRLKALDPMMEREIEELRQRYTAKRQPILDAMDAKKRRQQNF
A digest of the protocol: as §1

In assay [16] the target is T16, PIK3CG (Homo sapiens, UniProt P48736).
T16 construct: purchased Ambit Biosciences Corp (KinomeScan); host or cells: E. coli host derived from BL21, infected with T7 phage
T16 sequence (P48736 whole entry): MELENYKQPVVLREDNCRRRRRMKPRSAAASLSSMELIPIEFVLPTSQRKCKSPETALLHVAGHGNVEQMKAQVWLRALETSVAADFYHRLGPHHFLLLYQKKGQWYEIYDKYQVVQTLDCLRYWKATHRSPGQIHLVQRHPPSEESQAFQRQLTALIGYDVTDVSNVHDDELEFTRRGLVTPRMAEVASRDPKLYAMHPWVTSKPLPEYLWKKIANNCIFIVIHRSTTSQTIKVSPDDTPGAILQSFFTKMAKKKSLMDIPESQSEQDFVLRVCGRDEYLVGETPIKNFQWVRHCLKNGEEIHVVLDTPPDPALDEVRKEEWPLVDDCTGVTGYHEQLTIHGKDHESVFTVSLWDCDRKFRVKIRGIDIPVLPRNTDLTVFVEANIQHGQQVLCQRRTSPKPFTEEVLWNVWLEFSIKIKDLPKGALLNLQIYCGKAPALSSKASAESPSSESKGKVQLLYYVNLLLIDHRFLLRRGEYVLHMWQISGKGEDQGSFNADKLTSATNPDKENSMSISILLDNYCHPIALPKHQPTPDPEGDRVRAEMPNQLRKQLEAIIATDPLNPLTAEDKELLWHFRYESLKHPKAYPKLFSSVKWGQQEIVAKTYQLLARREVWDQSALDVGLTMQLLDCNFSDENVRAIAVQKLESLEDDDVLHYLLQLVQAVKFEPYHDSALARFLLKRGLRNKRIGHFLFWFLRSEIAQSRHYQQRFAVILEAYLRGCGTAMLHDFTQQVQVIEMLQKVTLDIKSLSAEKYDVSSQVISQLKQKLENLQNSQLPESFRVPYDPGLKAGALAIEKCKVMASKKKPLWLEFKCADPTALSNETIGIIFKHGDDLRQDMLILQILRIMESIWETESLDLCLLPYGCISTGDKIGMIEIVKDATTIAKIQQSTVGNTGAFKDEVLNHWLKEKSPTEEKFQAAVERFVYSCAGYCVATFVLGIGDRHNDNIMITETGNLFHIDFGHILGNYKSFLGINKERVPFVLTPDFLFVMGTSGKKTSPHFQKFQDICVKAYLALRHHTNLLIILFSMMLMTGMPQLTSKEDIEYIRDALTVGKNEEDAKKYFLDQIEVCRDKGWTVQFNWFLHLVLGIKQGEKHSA
A digest of the protocol: as §1

Assay [17] addresses T17, RIOK3 (Homo sapiens, UniProt O14730).
T17 construct: host or cells: E. coli host derived from BL21, T7 phage lysate
A digest of the protocol: as §1

Assay [18] concerns the target T18, TGFBR2 (Homo sapiens, UniProt P37173).
T18 construct: host or cells: E. coli host derived from the BL21 strain, T7 phage lysate
An outline of the steps: as §1

The target of assay [19] is T19, TLK1 (Homo sapiens, UniProt Q9UKI8).
T19 construct: purchased Ambit Biosciences Corp (KinomeScan); host or cells: E. coli host derived from the BL21 strain (T7 phage lysate)
An outline of the steps:
as §1

For assay [20], the target named is T20, TRKC (Homo sapiens, UniProt Q16288).
T20 construct: purchased Ambit Biosciences Corp (KinomeScan); host or cells: E. coli host derived from the BL21 strain (T7 phage lysate)
T20 sequence (Q16288 32-839): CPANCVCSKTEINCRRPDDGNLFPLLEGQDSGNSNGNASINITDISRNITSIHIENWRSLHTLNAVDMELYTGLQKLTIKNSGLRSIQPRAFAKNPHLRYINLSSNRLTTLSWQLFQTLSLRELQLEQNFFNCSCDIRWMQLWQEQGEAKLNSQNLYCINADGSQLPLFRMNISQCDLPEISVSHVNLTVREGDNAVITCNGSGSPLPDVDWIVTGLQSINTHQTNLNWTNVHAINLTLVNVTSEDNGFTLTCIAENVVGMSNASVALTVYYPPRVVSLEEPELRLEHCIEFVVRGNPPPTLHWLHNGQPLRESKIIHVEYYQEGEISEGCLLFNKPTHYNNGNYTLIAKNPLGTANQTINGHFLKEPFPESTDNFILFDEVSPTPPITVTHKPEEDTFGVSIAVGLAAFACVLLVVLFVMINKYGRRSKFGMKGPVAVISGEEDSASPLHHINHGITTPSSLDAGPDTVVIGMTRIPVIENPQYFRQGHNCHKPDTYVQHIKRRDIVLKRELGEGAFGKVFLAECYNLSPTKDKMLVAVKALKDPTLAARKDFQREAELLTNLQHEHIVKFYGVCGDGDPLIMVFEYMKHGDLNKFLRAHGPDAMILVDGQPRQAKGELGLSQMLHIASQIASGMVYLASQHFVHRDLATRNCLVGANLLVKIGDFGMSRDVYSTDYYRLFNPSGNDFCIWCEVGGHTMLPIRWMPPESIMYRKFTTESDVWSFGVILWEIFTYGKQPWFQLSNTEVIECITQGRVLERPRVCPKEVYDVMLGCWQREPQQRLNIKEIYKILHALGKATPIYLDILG
An outline of the steps:
as §1

For assay [21], the target named is T21, VEGFR2 (Homo sapiens, UniProt P35968).
T21 construct: purchased Ambit Biosciences Corp (KinomeScan); host or cells: E. coli host derived from the BL21 strain (T7 phage lysate)
A digest of the protocol: as §1

In assay [22] the target is T22, p38-beta (Homo sapiens, UniProt Q15759).
T22 construct: host or cells: E. coli host derived from the BL21 strain, infected with T7 phage
An outline of the steps:
as §1

T12 sequence (P45984 whole entry): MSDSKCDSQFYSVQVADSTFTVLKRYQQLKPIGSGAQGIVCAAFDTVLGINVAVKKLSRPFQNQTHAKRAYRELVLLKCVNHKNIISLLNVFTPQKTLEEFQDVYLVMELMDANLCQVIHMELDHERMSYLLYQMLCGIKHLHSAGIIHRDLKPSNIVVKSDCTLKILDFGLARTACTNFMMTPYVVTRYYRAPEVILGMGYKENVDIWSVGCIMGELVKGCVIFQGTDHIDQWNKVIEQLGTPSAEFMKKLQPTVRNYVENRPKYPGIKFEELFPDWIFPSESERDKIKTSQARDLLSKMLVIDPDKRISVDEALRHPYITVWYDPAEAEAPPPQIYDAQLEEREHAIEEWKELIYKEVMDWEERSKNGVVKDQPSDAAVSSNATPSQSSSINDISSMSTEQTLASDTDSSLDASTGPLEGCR
T17 sequence (O14730 whole entry): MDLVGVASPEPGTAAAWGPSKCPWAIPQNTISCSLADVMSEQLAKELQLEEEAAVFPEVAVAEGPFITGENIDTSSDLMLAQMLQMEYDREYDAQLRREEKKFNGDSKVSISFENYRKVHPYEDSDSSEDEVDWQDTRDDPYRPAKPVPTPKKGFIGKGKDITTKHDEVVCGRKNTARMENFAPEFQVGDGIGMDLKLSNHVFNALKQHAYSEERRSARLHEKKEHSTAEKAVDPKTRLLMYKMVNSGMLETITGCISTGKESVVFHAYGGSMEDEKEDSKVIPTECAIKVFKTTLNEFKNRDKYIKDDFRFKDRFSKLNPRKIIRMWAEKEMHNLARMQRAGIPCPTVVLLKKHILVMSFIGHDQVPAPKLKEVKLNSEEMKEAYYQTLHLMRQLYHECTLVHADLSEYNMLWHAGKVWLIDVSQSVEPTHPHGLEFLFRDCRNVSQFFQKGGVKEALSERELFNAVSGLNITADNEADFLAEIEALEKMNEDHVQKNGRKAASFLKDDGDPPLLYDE
T1 sequence (Q9Y243 whole entry): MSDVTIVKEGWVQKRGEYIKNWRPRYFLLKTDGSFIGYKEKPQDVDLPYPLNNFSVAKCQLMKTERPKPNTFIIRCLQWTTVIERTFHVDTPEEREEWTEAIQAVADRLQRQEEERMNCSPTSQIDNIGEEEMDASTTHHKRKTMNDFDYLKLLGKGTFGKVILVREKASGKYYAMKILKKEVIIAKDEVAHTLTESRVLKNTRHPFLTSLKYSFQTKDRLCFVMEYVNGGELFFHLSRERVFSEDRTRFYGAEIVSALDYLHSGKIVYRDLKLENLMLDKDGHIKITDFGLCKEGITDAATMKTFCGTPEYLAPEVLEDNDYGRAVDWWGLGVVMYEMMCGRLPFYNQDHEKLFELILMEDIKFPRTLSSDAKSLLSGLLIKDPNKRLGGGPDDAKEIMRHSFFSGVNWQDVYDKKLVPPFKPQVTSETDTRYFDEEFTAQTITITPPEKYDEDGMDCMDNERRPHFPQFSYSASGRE

With `C#Cc1cccc(Nc2ncnc3cc(OC)c(OCCCN4CCOCC4)cc23)c1` [NRC-2694, N-(3-ethylnylphenyl)-7-methoxy-6-[3-(4-morpholinyl)propoxy]-4-quinazolinamine], the “% Ctrl @ 10000 nM” value amounted to 66 % Ctrl in [1]; 29 % Ctrl in assay [2]; 53 % Ctrl in [3]; 92 % Ctrl in assay [4]; 61 % Ctrl in assay [5]; 6.8 % Ctrl in [6]. The “% Ctrl @ 10000 nM” value in assay [7] stood at 0 % Ctrl; in assay [8], 0.1 % Ctrl; in [9], 10 % Ctrl; in assay [10] it was 0.95 % Ctrl; in [11] it was 75 % Ctrl; in assay [12], 95 % Ctrl. Moreover, the “% Ctrl @ 10000 nM” value in assay [13] is listed as 100 % Ctrl; in assay [14], 83 % Ctrl; in assay [15] it was 85 % Ctrl; in [16] it was 78 % Ctrl; in assay [17], 37 % Ctrl; in [18], 86 % Ctrl. In addition, the “% Ctrl @ 10000 nM” value in assay [19] was found to be 77 % Ctrl; in assay [20] it was 80 % Ctrl; in assay [21], 95 % Ctrl; in assay [22], 100 % Ctrl.
